Results: BindingDB's records for patent US9150581 (Research Triangle Institute, 2015)

Molecular target: Isoform Alpha-4-2 of Neuronal acetylcholine receptor subunit alpha-4 (Alpha-4-2) (Rattus norvegicus, UniProt P09483)
Assay: Inhibition Assay

Isoform Alpha-4-2 of Neuronal acetylcholine receptor subunit alpha-4 (Alpha-4-2), sequence (P09483 as listed by the source): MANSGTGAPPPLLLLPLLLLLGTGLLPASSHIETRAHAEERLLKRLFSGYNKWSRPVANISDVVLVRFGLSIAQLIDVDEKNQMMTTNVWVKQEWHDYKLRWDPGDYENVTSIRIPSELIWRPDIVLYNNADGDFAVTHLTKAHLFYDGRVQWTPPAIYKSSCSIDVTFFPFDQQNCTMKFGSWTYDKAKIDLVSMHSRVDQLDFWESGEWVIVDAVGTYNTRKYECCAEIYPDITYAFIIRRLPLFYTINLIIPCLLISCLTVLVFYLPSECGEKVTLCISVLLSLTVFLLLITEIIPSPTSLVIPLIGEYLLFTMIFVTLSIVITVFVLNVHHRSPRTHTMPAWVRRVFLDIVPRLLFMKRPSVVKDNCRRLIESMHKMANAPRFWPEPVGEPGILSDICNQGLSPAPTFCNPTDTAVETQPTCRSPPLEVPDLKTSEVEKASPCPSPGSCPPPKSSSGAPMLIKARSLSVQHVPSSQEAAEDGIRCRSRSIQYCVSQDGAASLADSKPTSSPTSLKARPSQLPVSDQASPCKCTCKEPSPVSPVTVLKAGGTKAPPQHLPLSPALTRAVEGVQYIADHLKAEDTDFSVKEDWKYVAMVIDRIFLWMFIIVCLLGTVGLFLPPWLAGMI

Compound Fc1ncc(C2CC3CCC2N3)cc1-c1cccc(Cl)c1 (racemic) [US9150581, RTI-7527-98] has a Ki of 0.073 nM.
In the case of Fc1ncc(C2CC3CCC2N3)cc1-c1ccccc1 (stereo not drawn) [US9150581, RTI-7527-(-)-47], the Ki is reported as 0.26 nM.
